Results taken from publication PMC9586938, “Picomolar fluorescent probes for compound affinity determination to carbonic anhydrase IX expressed in live cancer cells” (Scientific Reports, 2022).

Target: T1, catalytic domain of recombinant human CAIX (Homo sapiens, UniProt Q16790)
T1 construct: Isozymes CAIX, CAXII, and CAXIV were the catalytic domains of the proteins; made in house; host or cells: mammalian cells
Assay: Stopped-flow assay (SFA) of inhibition of CAIX catalytic activity
Assay type: biochemical
Description: The binding affinities of all fluorescein-containing compounds were determined for all 12 catalytically active CA isozymes by the thermal shift assay (TSA). […] However, the SFA technique cannot determine the affinities lower than the enzyme concentration used in the assay. […] In addition, we used isothermal titration calorimetry (ITC), the standard assay to determine affinity and enthalpy of protein–ligand binding. […] Therefore, ITC was used only to determine the enthalpy of interaction and confirm the ordering of compound affinities.
Inhibition of the CAIX catalytic activity (hydration reaction of CO2 to acid protons and bicarbonate) by selected compounds has been determined as previously described[41],[42]. The CA enzymatic activity and its inhibition were followed by the rate of change in pH spectrophotometrically followed by the change in color of indicator phenol red. Addition of increased concentrations of an inhibitor slowed the rate of the change in pH. The assay was performed using the stopped-flow equipment. The rate of spontaneous acidification due to CO2 hydration in water was subtracted from the enzymatically catalyzed rate.

3-((2-(cyclooctylamino)-3,5,6-trifluoro-4-(methylsulfonyl)phenyl)sulfonyl)-N-(3',6'-dihydroxy-3-oxo-3H-spiro[isobenzofuran-1,9'-xanthen]-5-yl)propanamide and 3-((3-(cyclooctylamino)-2,5,6-trifluoro-4-(methylsulfonyl)phenyl)sulfonyl)-N-(3',6'-dihydroxy-3-oxo-3H-spiro[isobenzofuran-1,9'-xanthen]-5-yl)propanamide [GZ20-37]
Ki: 1.5 µM
